Structures can show the parent of a compound that is named as a salt.
Each compound was assayed against T1, human CGT (ceramide galactosyltransferase), CHO/CGT lysate (Homo sapiens, UniProt Q16880) (assay: CGT enzyme assay, RapidFire/MS/MS readout with 0.01% Tween added (Table 1 ranges with two asterisks **)). Settings: CGT enzymatic assay; range with two asterisks (**): RapidFire/MS/MS method with 0.01% Tween added.
T1 construct: Full-length human CGT cDNA was cloned into the BamH1/Xho1 site of pcDNA3.1 (+); expressed in transfected cells; host or cells: Chinese hamster ovary (CHO) cells; lysate prepared with M-PER
T1 sequence (Q16880 21-541): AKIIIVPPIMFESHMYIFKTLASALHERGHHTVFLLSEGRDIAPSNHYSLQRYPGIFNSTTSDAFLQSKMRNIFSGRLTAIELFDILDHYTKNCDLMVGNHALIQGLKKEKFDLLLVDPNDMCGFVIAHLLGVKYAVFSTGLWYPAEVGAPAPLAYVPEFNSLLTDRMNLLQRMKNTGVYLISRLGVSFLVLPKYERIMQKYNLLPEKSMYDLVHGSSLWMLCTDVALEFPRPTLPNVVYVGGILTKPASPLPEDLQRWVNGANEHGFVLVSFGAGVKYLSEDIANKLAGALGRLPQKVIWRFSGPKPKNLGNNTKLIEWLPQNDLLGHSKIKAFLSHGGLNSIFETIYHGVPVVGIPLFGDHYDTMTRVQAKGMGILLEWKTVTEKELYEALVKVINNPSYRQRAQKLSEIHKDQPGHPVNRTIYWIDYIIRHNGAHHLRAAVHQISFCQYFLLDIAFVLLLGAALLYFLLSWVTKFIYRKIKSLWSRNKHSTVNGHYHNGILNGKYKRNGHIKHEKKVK
Type: biochemical
Procedure, shortened: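 Lysate (4 μg) of CHO cells transfected with full-length human CGT incubated 1 h at 37 °C with compound (0.001–50 μM) in pH 7.2 HEPES buffer with 10 μM C6-NBD-dihydro-ceramide, 17.5 μM UDP-galactose, Mg2+/Mn2+, CHAPS, BSA, 0.5% DMSO; ** set also contained 0.01% Tween 80. Product quantified by RapidFire/MS/MS, normalized to internal standard; IC50 from sigmoidal variable-slope fits.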
Compound N[C@H]1CCN(C(=O)[C@@H](NS(=O)(=O)c2ccc3cc(OC4CCCC4)ccc3c2)C(F)(F)c2ccc(-c3ccc(Cl)cc3)cc2)CC1(F)F [Compound 161-3, N—((R)-3-((S)-4-amino-3,3-difluoropiperidin-1-yl)-1-(4′-chloro-[1,1′-biphenyl]-4-yl)-1,1-difluoro-3-oxopropan-2-yl)-6-(cyclopentyloxy)naphthalene-2-sulfonamide trifluoroacetate] has an IC50 of less than 1 µM.
For N[C@@H]1CCN(C(=O)[C@H](NS(=O)(=O)c2ccc3cc(OC4CCCC4)ccc3c2)C(F)(F)c2ccc(-c3ccc(Cl)cc3)cc2)CC1(F)F [Compound 161-4, N—((S)-3-((R)-4-amino-3,3-difluoropiperidin-1-yl)-1-(4′-chloro-[1,1′-biphenyl]-4-yl)-1,1-difluoro-3-oxopropan-2-yl)-6-(cyclopentyloxy)naphthalene-2-sulfonamide trifluoroacetate], the IC50 was 1 to 10 µM.
NC1CCN(C(=O)[C@@H](NS(=O)(=O)c2ccc3cc(OC4CCCC4)ccc3c2)C(F)(F)c2ccc(-c3ccc(Cl)cc3)cn2)CC1 [Compound 162-1, (R)—N-(3-(4-aminopiperidin-1-yl)-1-(5-(4-chlorophenyl)pyridin-2-yl)-1,1-difluoro-3-oxopropan-2-yl)-6-(cyclopentyloxy)naphthalene-2-sulfonamide] gave an IC50 of 1 to 10 µM.
NC1CCN(C(=O)[C@H](NS(=O)(=O)c2ccc3cc(OC4CCCC4)ccc3c2)C(F)(F)c2ccc(-c3ccc(Cl)cc3)cn2)CC1 [Compound 162-2, (S)—N-(3-(4-aminopiperidin-1-yl)-1-(5-(4-chlorophenyl)pyridin-2-yl)-1,1-difluoro-3-oxopropan-2-yl)-6-(cyclopentyloxy)naphthalene-2-sulfonamide] was tested, and the IC50 was 10 to 30 µM.
Work on NC1CCN(C(=O)[C@@H](NS(=O)(=O)c2ccc(OCC3CCCCC3)cc2)C(F)(F)c2ccc(-c3ccc(Cl)cc3)cn2)CC1 [Compound 163-1, (R)—N-(3-(4-aminopiperidin-1-yl)-1-(5-(4-chlorophenyl)pyridin-2-yl)-1,1-difluoro-3-oxopropan-2-yl)-4-(cyclohexylmethoxy)benzenesulfonamide] yielded an IC50 of 1 to 10 µM.
Work on NC1CCN(C(=O)[C@H](NS(=O)(=O)c2ccc(OCC3CCCCC3)cc2)C(F)(F)c2ccc(-c3ccc(Cl)cc3)cn2)CC1 [Compound 163-2, (S)—N-(3-(4-aminopiperidin-1-yl)-1-(5-(4-chlorophenyl)pyridin-2-yl)-1,1-difluoro-3-oxopropan-2-yl)-4-(cyclohexylmethoxy) benzenesulfonamide] yielded an IC50 of 30 to 100 µM.
NC1CCN(C(=O)[C@@H](NS(=O)(=O)c2cc3ccc(OC4CCCC4)cc3s2)C(F)(F)c2ccc(-c3ccc(Cl)cc3)cc2)CC1 [Compound 164-1, (R)—N-(3-(4-aminopiperidin-1-yl)-1-(4′-chloro-[1,1′-biphenyl]-4-yl)-1,1-difluoro-3-oxopropan-2-yl)-6-(cyclopentyloxy)benzo[b]thiophene-2-sulfonamide] gave an IC50 of 1 to 10 µM.
In the case of NC1CCN(C(=O)[C@H](NS(=O)(=O)c2cc3ccc(OC4CCCC4)cc3s2)C(F)(F)c2ccc(-c3ccc(Cl)cc3)cc2)CC1 [Compound 164-2, (S)—N-(3-(4-aminopiperidin-1-yl)-1-(4′-chloro-[1,1′-biphenyl]-4-yl)-1,1-difluoro-3-oxopropan-2-yl)-6-(cyclopentyloxy)benzo[b]thiophene-2-sulfonamide], the IC50 is reported as 1 to 10 µM.
NC1CCN(C(=O)[C@H](NS(=O)(=O)c2ccc(COC3CCCCC3)s2)C(F)(F)c2ccc(-c3ccc(Cl)cc3)cc2)CC1 [Compound 165-1, (S)—N-(3-(4-aminopiperidin-1-yl)-1-(4′-chloro-[1,1′-biphenyl]-4-yl)-1,1-difluoro-3-oxopropan-2-yl)-5-((cyclohexyloxy)methyl)thiophene-2-sulfonamide trifluoroacetate] gave an IC50 of 30 to 100 µM.
For NC1CCN(C(=O)[C@@H](NS(=O)(=O)c2ccc(COC3CCCCC3)s2)C(F)(F)c2ccc(-c3ccc(Cl)cc3)cc2)CC1 [Compound 165-2, (R)—N-(3-(4-aminopiperidin-1-yl)-1-(4′-chloro-[1,1′-biphenyl]-4-yl)-1,1-difluoro-3-oxopropan-2-yl)-5-((cyclohexyloxy)methyl)thiophene-2-sulfonamide trifluoroacetate], the IC50 was 30 to 100 µM.
C=C(c1ccc(C(F)(F)[C@H](NS(=O)(=O)c2ccc3cc(OC4CCCC4)ccc3c2)C(=O)N2CCC(N)CC2)cc1)C(F)(F)F [Compound 166-1, (R)—N-(3-(4-aminopiperidin-1-yl)-1,1-difluoro-3-oxo-1-(4-(3,3,3-trifluoroprop-1-en-2-yl)phenyl)propan-2-yl)-6-(cyclopentyloxy)naphthalene-2-sulfonamide] gave an IC50 of 1 to 10 µM.
For C=C(c1ccc(C(F)(F)[C@@H](NS(=O)(=O)c2ccc3cc(OC4CCCC4)ccc3c2)C(=O)N2CCC(N)CC2)cc1)C(F)(F)F [Compound 166-2, (S)—N-(3-(4-aminopiperidin-1-yl)-1,1-difluoro-3-oxo-1-(4-(3,3,3-trifluoroprop-1-en-2-yl)phenyl)propan-2-yl)-6-(cyclopentyloxy) naphthalene-2-sulfonamide], the IC50 was 1 to 10 µM.
NC1CC2CCC(C1)N2C(=O)[C@@H](NS(=O)(=O)c1cc2ccc(OC3CCCC3)cc2s1)C(F)(F)c1ccc(Br)cc1 (stereo partly drawn) [Compound 167-1, N-((2R)-3-(3-amino-8-azabicyclo[3.2.1]octan-8-yl)-1-(4-bromophenyl)-1,1-difluoro-3-oxopropan-2-yl)-6-(cyclopentyloxy)benzo[b]thiophene-2-sulfonamide trifluoroacetate] gave an IC50 of 1 to 10 µM.
NC1CC2CCC(C1)N2C(=O)[C@H](NS(=O)(=O)c1cc2ccc(OC3CCCC3)cc2s1)C(F)(F)c1ccc(Br)cc1 (stereo partly drawn) [Compound 167-2, N-((2 S)-3-(3-amino-8-azabicyclo[3.2.1]octan-8-yl)-1-(4-bromophenyl)-1,1-difluoro-3-oxopropan-2-yl)-6-(cyclopentyloxy)benzo[b]thiophene-2-sulfonamide trifluoroacetate] showed an IC50 of 1 to 10 µM.
In the case of NC1CCN(C(=O)[C@@H](NS(=O)(=O)c2ccc3cc(OC4CCCC4)ccc3c2)C(F)(F)c2ccc(Cl)c(OC3CC3)c2)CC1 [Compound 168-1, (R)—N-(3-(4-aminopiperidin-1-yl)-1-(4-chloro-3-cyclopropoxyphenyl)-1,1-difluoro-3-oxopropan-2-yl)-6-(cyclopentyloxy)naphthalene-2-sulfonamide trifluoroacetate], the IC50 is reported as 1 to 10 µM.
Work on NC1CCN(C(=O)[C@H](NS(=O)(=O)c2ccc3cc(OC4CCCC4)ccc3c2)C(F)(F)c2ccc(Cl)c(OC3CC3)c2)CC1 [Compound 168-2, (S)—N-(3-(4-aminopiperidin-1-yl)-1-(4-chloro-3-cyclopropoxyphenyl)-1,1-difluoro-3-oxopropan-2-yl)-6-(cyclopentyloxy) naphthalene-2-sulfonamide trifluoroacetate] yielded an IC50 of 10 to 30 µM.
With CCCOc1cc(C(F)(F)[C@H](NS(=O)(=O)c2ccc3cc(OC4CCCC4)ccc3c2)C(=O)N2CCC(N)CC2)ccc1Cl [Compound 169-1, (R)—N-(3-(4-aminopiperidin-1-yl)-1-(4-chloro-3-propoxyphenyl)-1,1-difluoro-3-oxopropan-2-yl)-6-(cyclopentyloxy)naphthalene-2-sulfonamide trifluoroacetate] the IC50 was less than 1 µM.
With CCCOc1cc(C(F)(F)[C@@H](NS(=O)(=O)c2ccc3cc(OC4CCCC4)ccc3c2)C(=O)N2CCC(N)CC2)ccc1Cl [Compound 169-2, (S)—N-(3-(4-aminopiperidin-1-yl)-1-(4-chloro-3-propoxyphenyl)-1,1-difluoro-3-oxopropan-2-yl)-6-(cyclopentyloxy) naphthalene-2-sulfonamide trifluoroacetate] the IC50 was 1 to 10 µM.
Compound NC1CCN(C(=O)[C@@H](NS(=O)(=O)c2ccc3cc(OC4CCCC4)ccc3c2)C(F)(F)c2ccc(Cl)c(OC3CCCC3)c2)CC1 [Compound 170-1, (R)—N-(3-(4-aminopiperidin-1-yl)-1-(4-chloro-3-(cyclopentyloxy)phenyl)-1,1-difluoro-3-oxopropan-2-yl)-6-(cyclopentyloxy)naphthalene-2-sulfonamide trifluoroacetate] has an IC50 of 1 to 10 µM.
Work on NC1CCN(C(=O)[C@H](NS(=O)(=O)c2ccc3cc(OC4CCCC4)ccc3c2)C(F)(F)c2ccc(Cl)c(OC3CCCC3)c2)CC1 [Compound 170-2, (S)—N-(3-(4-aminopiperidin-1-yl)-1-(4-chloro-3-(cyclopentyloxy)phenyl)-1,1-difluoro-3-oxopropan-2-yl)-6-(cyclopentyloxy) naphthalene-2-sulfonamide trifluoroacetate] yielded an IC50 of 10 to 30 µM.
Compound N[C@H]1CCN(C(=O)[C@@H](NS(=O)(=O)c2ccc(OCC3CCCCC3)cc2)C(F)(F)c2ccc(-c3ccc(Cl)cc3)cc2)C1 [Compound 171-1, N—((R)-3-((S)-3-aminopyrrolidin-1-yl)-1-(4′-chloro-[1,1′-biphenyl]-4-yl)-1,1-difluoro-3-oxopropan-2-yl)-4-(cyclohexylmethoxy)benzenesulfonamide trifluoroacetate] has an IC50 of 1 to 10 µM.

From patent US20190322676A1, “CERAMIDE GALACTOSYLTRANSFERASE INHIBITORS FOR THE TREATMENT OF DISEASE” (BioMarin Pharmaceutical Inc., priority 2016, published 2019)
